Assay results: patent US20240101527A1, “QUINOLONE CARBOXYLIC DERIVATIVES” (TAIGEN BIOTECHNOLOGY CO., LTD., priority 2019, published 2024)
Converted amounts (≈) assume the structure as drawn.

How the values were obtained:
Test in all cases: MIC determination, microdilution method (CLSI)
Format in all cases: cell-based
[1] = system: Staphylococcus aureus ATCC 29213; conditions: for MIC: Staphylococcus aureus, ATCC29213, Gram(+), 24 h at 37° C., read-out: MIC Sa29213
Protocol: (§1) The MICs of compounds against all bacterial strains were determined using the microdilution method according to the Clinical and Laboratory Standards Institute guidelines. Bacteria from two or three colonies were picked from freshly streaked culture plates and incubated in culture broth for 8 h. The bacterial culture was then diluted with double-concentrated culture broth to a final concentration of 5×10^5 colony-forming unit (CFU)/mL. Testing compounds were prepared by diluting the stock solution with dimethyl sulfoxide (DMSO). The diluted bacterial suspension was added to an equal volume of a drug solution in a single microwell and incubated for 24 h at 37° C. The minimum concentration in the microwells with no visible bacterial growth was defined as the MIC. All MIC determinations were repeated twice on different days. The MIC of Compounds 1 to 15 against gram(+) and gram(−) bacteria are shown as follows: […]

[2] = system: Streptococcus pneumoniae ATCC 49619; conditions: for MIC: Streptococcus pneumoniae, ATCC49619, Gram(+), 24 h at 37° C., read-out: MIC Sp49619
Protocol: as §1

[3] = system: Pseudomonas aeruginosa ATCC 27853; conditions: for MIC: Pseudomonas aeruginosa, ATCC27853, Gram(−), 24 h at 37° C., read-out: MIC Pa27853
Protocol: as §1

[4] = system: Pseudomonas aeruginosa K2376; conditions: for MIC: Pseudomonas aeruginosa, K2376, Gram(−), 24 h at 37° C., read-out: MIC PaK2376
Protocol: as §1

[5] = MIC of comparative compound / MIC of Compound 1
[6] = MIC of comparative compound / MIC of Compound 2
[7] = MIC of comparative compound / MIC of Compound 6
[8] = MIC of comparative compound / MIC of Compound 7
[9] = MIC of comparative compound / MIC of Compound 8
[10] = MIC of comparative compound / MIC of Compound 11

COc1c(N2CC(C)C(N)C2)ccc2c(=O)c(C(=O)O)cn(C3CC3)c12 (stereo not shown) [A1, reference compound]
MIC difference (folds) Sa29213 [1, 5]: 16.1 folds
MIC difference (folds) Sp49619 [2, 5]: 64.5 folds

COc1c(N2CCC(C)C(N)C2)ccc2c(=O)c(C(=O)O)cn(C3CC3)c12 (stereo not shown) [A2, reference compound]
MIC difference (folds) Pa27853 [3, 5]: 32.0 folds
MIC difference (folds) Sa29213 [1, 5]: 4.0 folds
MIC difference (folds) PaK2376 [4, 5]: 32.0 folds
MIC difference (folds) Sp49619 [2, 5]: 4.0 folds

CCC1CCN(c2ccc3c(=O)c(C(=O)O)cn(C4CC4)c3c2OC)CC1N (stereo not shown) [B1, reference compound]
MIC difference (folds) Pa27853 [3, 6]: 2.0 folds
MIC difference (folds) Sa29213 [1, 6]: 8.1 folds
MIC difference (folds) PaK2376 [4, 6]: 2.0 folds
MIC difference (folds) Sp49619 [2, 6]: 1.0 folds

CCC1CCN(c2ccc3c(=O)c(C(=O)O)cn(CC(F)(F)F)c3c2OC)CC1N (stereo not shown) [B2, reference compound]
MIC difference (folds) Pa27853 [3, 6]: 16.0 folds
MIC difference (folds) Sa29213 [1, 6]: 1.0 folds
MIC difference (folds) PaK2376 [4, 6]: 4.0 folds
MIC difference (folds) Sp49619 [2, 6]: 4.0 folds

CCC1CCN(c2ccc3c(=O)c(C(=O)O)cn(CC(F)F)c3c2OC)CC1N (stereo not shown) [B3, reference compound]
MIC difference (folds) Pa27853 [3, 6]: 4.0 folds
MIC difference (folds) Sa29213 [1, 6]: 1.0 folds
MIC difference (folds) PaK2376 [4, 6]: 8.0 folds
MIC difference (folds) Sp49619 [2, 6]: 8.1 folds

COc1c(N2CC[C@H](N)C2)ccc2c(=O)c(C(=O)O)cn(C3CC3)c12 [C1, reference compound]
MIC difference (folds) Sa29213 [1, 7]: 4.0 folds
MIC difference (folds) Sp49619 [2, 7]: 8.0 folds

COc1c(N2CCC(N)C2)ccc2c(=O)c(C(=O)O)cn(C3CC3F)c12 (stereo not shown) [C2, reference compound]
MIC difference (folds) Pa27853 [3, 7]: 1.0 folds
MIC difference (folds) Sa29213 [1, 7]: 8.0 folds
MIC difference (folds) PaK2376 [4, 7]: 1.0 folds
MIC difference (folds) Sp49619 [2, 7]: 15.9 folds

COc1c(N2CC[C@H](N)C2)ccc2c(=O)c(C(=O)O)cn(C(C)CF)c12 (stereo partly shown) [C3, reference compound]
MIC difference (folds) Pa27853 [3, 7]: 16.0 folds
MIC difference (folds) Sa29213 [1, 7]: 127.0 folds
MIC difference (folds) PaK2376 [4, 7]: 4.0 folds
MIC difference (folds) Sp49619 [2, 7]: 508.0 folds

COc1c(N2CCC(C)C(N)C2)ccc2c(=O)c(C(=O)O)cn(C3CC3F)c12 (stereo not shown) [Compound 1, 7-(3-Amino-4-methyl-piperidin-1-yl)-1-(2-fluoro-cyclopropyl)-8-methoxy-4-oxo-1,4-dihydro-quinoline-3-carboxylic acid]
MIC [3]: 0.25 µg/mL (≈ 0.642 µM)
MIC [1]: 0.031 µg/mL (≈ 0.0796 µM)
MIC [4]: 1 µg/mL (≈ 2.57 µM)
MIC [2]: 0.031 µg/mL (≈ 0.0796 µM)

CC[C@@H]1CCN(c2ccc3c(=O)c(C(=O)O)cn([C@@H]4C[C@@H]4F)c3c2OC)C[C@H]1N [Compound 2]
MIC [3]: 0.5 µg/mL (≈ 1.24 µM)
MIC [1]: 0.031 µg/mL (≈ 0.0768 µM)
MIC [4]: 2 µg/mL (≈ 4.96 µM)
MIC [2]: 0.031 µg/mL (≈ 0.0768 µM)

CCC[C@@H]1CCN(c2ccc3c(=O)c(C(=O)O)cn([C@@H]4C[C@@H]4F)c3c2OC)C[C@H]1N [Compound 3]
MIC [3]: 2 µg/mL (≈ 4.79 µM)
MIC [1]: 0.031 µg/mL (≈ 0.0743 µM)
MIC [4]: 4 µg/mL (≈ 9.58 µM)
MIC [2]: 0.031 µg/mL (≈ 0.0743 µM)

COc1c(N2CC[C@@H](C(F)(F)F)[C@H](N)C2)ccc2c(=O)c(C(=O)O)cn([C@@H]3C[C@@H]3F)c12 [Compound 4]
MIC [3]: 4 µg/mL (≈ 9.02 µM)
MIC [1]: 0.031 µg/mL (≈ 0.0699 µM)
MIC [4]: 4 µg/mL (≈ 9.02 µM)
MIC [2]: 0.031 µg/mL (≈ 0.0699 µM)

COc1c(N2CC[C@@H](F)[C@H](N)C2)ccc2c(=O)c(C(=O)O)cn([C@@H]3C[C@@H]3F)c12 [Compound 5]
MIC [3]: 4 µg/mL (≈ 10.2 µM)
MIC [1]: 0.063 µg/mL (≈ 0.16 µM)
MIC [4]: 16 µg/mL (≈ 40.7 µM)
MIC [2]: 0.063 µg/mL (≈ 0.16 µM)

C[C@@H]1CCN(c2ccc3c(=O)c(C(=O)O)cn([C@@H]4C[C@@H]4F)c3c2Cl)C[C@H]1N [Compound 7]
MIC [3]: 2 µg/mL (≈ 5.08 µM)
MIC [1]: 0.031 µg/mL (≈ 0.0787 µM)
MIC [4]: 2 µg/mL (≈ 5.08 µM)
MIC [2]: 0.031 µg/mL (≈ 0.0787 µM)

CC[C@@H]1CCN(c2ccc3c(=O)c(C(=O)O)cn([C@@H]4C[C@@H]4F)c3c2Cl)C[C@H]1N [Compound 8]
MIC [3]: 0.125 µg/mL (≈ 0.306 µM)
MIC [1]: 0.031 µg/mL (≈ 0.076 µM)
MIC [4]: 0.5 µg/mL (≈ 1.23 µM)
MIC [2]: 0.008 µg/mL (≈ 0.0196 µM)

Cc1c(N2CCC[C@H](N)C2)ccc2c(=O)c(C(=O)O)cn([C@@H]3C[C@@H]3F)c12 [Compound 9]
MIC [3]: 0.5 µg/mL (≈ 1.39 µM)
MIC [1]: 0.031 µg/mL (≈ 0.0863 µM)
MIC [4]: 2 µg/mL (≈ 5.56 µM)
MIC [2]: 0.031 µg/mL (≈ 0.0863 µM)

CC[C@@H]1CCN(c2ccc3c(=O)c(C(=O)O)cn([C@@H]4C[C@@H]4F)c3c2C)C[C@H]1N [Compound 10]
MIC [3]: 0.125 µg/mL (≈ 0.323 µM)
MIC [1]: 0.031 µg/mL (≈ 0.08 µM)
MIC [4]: 0.5 µg/mL (≈ 1.29 µM)
MIC [2]: 0.031 µg/mL (≈ 0.08 µM)

C[C@H]1C[C@H](N)CN(c2ccc3c(=O)c(C(=O)O)cn([C@@H]4C[C@@H]4F)c3c2Cl)C1 [Compound 11]
MIC [3]: 2 µg/mL (≈ 5.08 µM)
MIC [1]: 0.031 µg/mL (≈ 0.0787 µM)
MIC [4]: 4 µg/mL (≈ 10.2 µM)
MIC [2]: 0.25 µg/mL (≈ 0.635 µM)

Cc1c(N2C[C@@H](C)C[C@H](N)C2)ccc2c(=O)c(C(=O)O)cn([C@@H]3C[C@@H]3F)c12 [Compound 12]
MIC [3]: 1 µg/mL (≈ 2.68 µM)
MIC [1]: 0.063 µg/mL (≈ 0.169 µM)
MIC [4]: 4 µg/mL (≈ 10.7 µM)
MIC [2]: 0.125 µg/mL (≈ 0.335 µM)

COc1c(N2C[C@@H](N)C[C@H](F)C2)ccc2c(=O)c(C(=O)O)cn([C@@H]3C[C@@H]3F)c12 [Compound 13]
MIC [3]: 2 µg/mL (≈ 5.08 µM)
MIC [1]: 0.063 µg/mL (≈ 0.16 µM)
MIC [4]: 16 µg/mL (≈ 40.7 µM)
MIC [2]: 0.031 µg/mL (≈ 0.0788 µM)

COc1c(N2CC[C@H](N)[C@@H](F)C2)ccc2c(=O)c(C(=O)O)cn([C@@H]3C[C@@H]3F)c12 [Compound 14]
MIC [3]: 2 µg/mL (≈ 5.08 µM)
MIC [1]: 0.063 µg/mL (≈ 0.16 µM)
MIC [4]: 2 µg/mL (≈ 5.08 µM)
MIC [2]: 0.125 µg/mL (≈ 0.318 µM)

NC1CCN(c2ccc3c(=O)c(C(=O)O)cn([C@@H]4C[C@@H]4F)c3c2Cl)CC1 [Compound 15]
MIC [3]: 0.25 µg/mL (≈ 0.658 µM)
MIC [1]: 0.063 µg/mL (≈ 0.166 µM)
MIC [4]: 8 µg/mL (≈ 21.1 µM)
MIC [2]: 0.063 µg/mL (≈ 0.166 µM)

CC1CCN(c2ccc3c(=O)c(C(=O)O)cn(C4CC4)c3c2Cl)CC1N (stereo not shown) [D1, reference compound]
MIC difference (folds) Pa27853 [3, 8]: 2.0 folds
MIC difference (folds) Sa29213 [1, 8]: 1.0 folds
MIC difference (folds) PaK2376 [4, 8]: 4.0 folds
MIC difference (folds) Sp49619 [2, 8]: 1.0 folds

CCC1CCN(c2ccc3c(=O)c(C(=O)O)cn(CC(F)F)c3c2Cl)CC1N (stereo not shown) [E1, reference compound]
MIC difference (folds) Pa27853 [3, 9]: 8.0 folds
MIC difference (folds) Sa29213 [1, 9]: 1.0 folds
MIC difference (folds) PaK2376 [4, 9]: 8.0 folds
MIC difference (folds) Sp49619 [2, 9]: 15.6 folds

CC1CC(N)CN(c2ccc3c(=O)c(C(=O)O)cn(C4CC4)c3c2Cl)C1 (stereo not shown) [F1, reference compound]
MIC difference (folds) Pa27853 [3, 10]: 2.0 folds
MIC difference (folds) Sa29213 [1, 10]: 1.0 folds
MIC difference (folds) PaK2376 [4, 10]: 1.0 folds
MIC difference (folds) Sp49619 [2, 10]: 2.0 folds

CC1CC(N)CN(c2ccc3c(=O)c(C(=O)O)cn(CC(F)F)c3c2Cl)C1 (stereo not shown) [F2, reference compound]
MIC difference (folds) Pa27853 [3, 10]: 4.0 folds
MIC difference (folds) Sa29213 [1, 10]: 16.1 folds
MIC difference (folds) PaK2376 [4, 10]: 4.0 folds
MIC difference (folds) Sp49619 [2, 10]: 16.0 folds
